Results taken from paper PMC9652379, “Safety evaluations of a synthetic antimicrobial peptide administered intravenously in rats and dogs” (Scientific Reports, 2022).
Where two headings read alike, the source gives them in different places. Positions of bridges follow the written chain, without caps; N, C: chain ends. Non-standard residues stand in square brackets, D forms with d. Residues, ends and D or L forms follow the SMILES beside them. Chains are numbered I, II in the order given. βAla = NCCC(=O)O

Assays:
beagle dogs = assay: Dose range finding in dogs: clinical signs, body weight, survival; type: in vivo, dog
Experimental: The purpose of this study was to conduct DRF for SET-M33 administered by short intravenous infusion (30 min) to beagle dogs at 4.0 and 8.0 mg/kg/day (7-day treatment period). Two animals served as control group (one male, one female), and four animals were assigned to treated groups (two males, two females). The doses were determined by a preliminary study not reported here.
Naïve beagle dogs were used for the toxicity studies. The animals were supplied by Marshall US. They were 9–10 months old at the start of treatment with a body-weight range of 9.1–10 kg for the DRF study. They were 6–7 months old at the start of treatment with a body-weight range of 6.6–8.6 kg for males and 5.1–6.5 kg for females for the 4-week toxicity study. The method of administration was an intravenous short infusion with an infusion pump, alternately either into the cephalic or saphenous veins using sterile disposable cannulas and syringes. The volume of the dose of SET-M33 and control in two studies was 2, 5 and 5 mL/Kg body weight, respectively.
Viability/mortality were recorded at least twice daily. […] Injection sites were examined daily during dosing. For clinical investigation, blood obtained via jugular venepuncture from anaesthetized dogs was used to analyse blood, coagulation and biochemical parameters.

mouse = details: cited from earlier work
male rats = assay: Neurological toxicity in rats (Irwin test, body temperature, locomotor activity, body weight); type: in vivo
Experimental: The purpose of this study was to evaluate the neurological side-effects of SET-M33 following a single intravenous injection of 5, 9 and 15 mg/kg and vehicle (6 animals/group). The study was based on subjective observation of central nervous system effects on general behaviour (Irwin test), combined with objective evaluation of body temperature and locomotor activity in male rats[32],[33]. Effects on body weight were also assessed. Again the dose levels were selected on the basis of the DRF study reported above.
Evaluation of SET-M33 neurological toxicity was based on the method described by Irwin[32],[33]. On the day prior to dosing, detailed subjective observation of all animals was made to assess the neurobehavioral and physiological state of untreated rats. After subjective observation, rectal temperature was measured and spontaneous locomotor activity was assessed. On the day of dosing, the animals were treated and then returned to their home cages. […] During these observations, the following parameters were systematically evaluated for each animal using a standard procedure: lethality, restlessness, apathy, writhing, fighting, stereotyped behaviour, tremor, twitches, convulsions, exophthalmos, abnormal respiration, alertness, startle response, loss of righting reflex, abnormal body carriage, abnormal gait, Straub tail, piloerection, pupil diameter, light-pupil response, touch response, fearfulness, pinna reflex, corneal reflex, catalepsy, passivity, aggressiveness, body tone, grip strength, cutaneous blood flow, cyanosis, ptosis, lacrimation, salivation, pain response, motility impairment, grooming, diarrhoea, vocalization, increased urination. Normal attributes of animals (e.g. alertness, body tone etc.) were subjectively scored as 4; enhancement or depression of these attributes by SET-M33 was scored with higher or lower integers, respectively. Attributes normally absent in animals (e.g. abnormal gait, abnormal respiration, tremors etc.) were subjectively scored from 0 (normal) to 8. […] Finally, spontaneous locomotor activity was analysed. […]

[1] = Toxicokinetics in dogs, 4 weeks daily 1-h iv infusion; type: in vivo; details: dog; for Cmax / tmax / AUC0-24 / AUC(0-t): iv
Experimental: Plasma concentrations and the main toxicokinetic parameters of SET-M33 in plasma samples were determined in beagle dogs after intravenous administration of SET-M33 by daily 1-h-infusion at 0.5, 1.5 or 4.0 mg/kg/day or only vehicle for 4 weeks (5 animals/group/sex). Blood samples were taken on day 1 and day 28.
The time when the maximum plasma concentration occurred (Tmax) was at the end of the 1-h infusion in all animals, as expected for this route of administration. Plasma concentrations of SET-M33 at 24 h post-dose were below the limit of quantification (< 20.0 ng/ml) in all animals at all dose levels on day 1 and day 28 (not shown).
On days 1 and 28, blood samples were obtained for toxicokinetic determinations from all animals at the following times: Day 1 at the end of infusion and 5, 10, 15, 30, 60 and 180 min later; […] and 24 h ± 30 min post-dose; Day 28 at the end of infusion and 5, 10, 15, 30, 60 and 180 min later; […] and 24 h ± 30 min post-dose. Blood samples were collected into lithium heparin test tubes and kept in an ice bath until centrifuging (1600 g for 10 min at 2–8 °C). The plasma obtained from each sample was transferred to a fresh polypropylenes test tubes, immediately frozen in dry ice and stored at − 20 °C ± 5. Bioanalytical samples were analysed by a validated liquid chromatographic mass spectrometric assay. Pharmacokinetic parameters were calculated using the computer program Phoenix WinNonlin version 6.3 (Certara USA, Inc).

[2] = female, beagle, in vivo, 4 mg/kg/day
[3] = male, beagle, in vivo, 0.5 mg/kg/day
[4] = male, beagle, in vivo, 4 mg/kg/day

In the case of `CC[C@H](C)[C@H](NC(=O)[C@H](CCCCN)NC(=O)[C@@H](N)CCCCN)C(=O)N[C@@H](CCCNC(=N)N)C(=O)N[C@H](C(=O)N[C@@H](CCCNC(=N)N)C(=O)N[C@@H](CC(C)C)C(=O)N[C@@H](CO)C(=O)N[C@@H](C)C(=O)NCCCC[C@H](NC(=O)[C@H](C)NC(=O)[C@H](CO)NC(=O)[C@H](CC(C)C)NC(=O)[C@H](CCCNC(=N)N)NC(=O)[C@@H](NC(=O)[C@H](CCCNC(=N)N)NC(=O)[C@@H](NC(=O)[C@H](CCCCN)NC(=O)[C@@H](N)CCCCN)[C@@H](C)CC)C(C)C)C(=O)NCCCC[C@H](NC(=O)[C@H](CCCCNC(=O)[C@H](C)NC(=O)[C@H](CO)NC(=O)[C@H](CC(C)C)NC(=O)[C@H](CCCNC(=N)N)NC(=O)[C@@H](NC(=O)[C@H](CCCNC(=N)N)NC(=O)[C@@H](NC(=O)[C@H](CCCCN)NC(=O)[C@@H](N)CCCCN)[C@@H](C)CC)C(C)C)NC(=O)[C@H](C)NC(=O)[C@H](CO)NC(=O)[C@H](CC(C)C)NC(=O)[C@H](CCCNC(=N)N)NC(=O)[C@@H](NC(=O)[C@H](CCCNC(=N)N)NC(=O)[C@@H](NC(=O)[C@H](CCCCN)NC(=O)[C@@H](N)CCCCN)[C@@H](C)CC)C(C)C)C(=O)NCCC(=O)O)C(C)C` [SET-M33] (I: H-KKIRVRLSAKK[βAla]-OH / II: H-KKIRVRLSAK / III: H-KKIRVRLSA / IV: H-KKIRVRLSA; amide I:10-IV:C, I:11-II:C, II:10-III:C (inferred); N-terminus and C-terminus assumed), the survival (beagle dogs; dogs, 4.0 and 8.0 mg/kg/day 30-min iv infusion, 7 days) is given as “All animals survived the scheduled period”, the “loss of body weight with respect to day 1” value (beagle dogs; one dog, 8 mg/kg/day 30-min iv infusion, end of 7-day treatment) is given as 9.4% and the efficacy dose (mouse) is given as 5 mg/kg. For the same molecule, the “adverse clinical signs (Irwin test)” value (male rats; male rats, 5, 9 and 15 mg/kg single iv, 5, 30, 90, 240 min and 24 h post-dose) was “did not cause any adverse clinical signs”, the “delayed toxicity and mortality” value (male rats; male rats, 5, 9 and 15 mg/kg single iv, up to day 7) was “No delayed effects of toxicity and no mortality” and the “group mean body temperature lower than vehicle-treated control group” value (male rats; male rats, 9 and 15 mg/kg single iv, 5 min post-dose) was 0.4–0.6 °C. The “Cmax and AUC0-24 relative to values predicted for a linear relationship” value ([1]; in vivo, 4 mg/kg/day) was “approximately 2.1 times”, the Cmax ([1]; in vivo, 0.5 mg/kg/day) was 82.8 ± 19.1 ng/mL and the tmax ([1]; in vivo, 0.5 mg/kg/day) was “EOI”. The tmax ([1]; in vivo, 1.5 mg/kg/day) was “EOI”, the tmax ([1]; in vivo, 4 mg/kg/day) was “EOI” and the AUC0-24 ([1]; female, beagle, in vivo, 0.5 mg/kg/day) was 45.6 ± 10.4 ng·h/mL. For the same molecule, the AUC(0-t) ([1]; female, beagle, in vivo, 0.5 mg/kg/day, AUC0-24) was 76.5 ± 25.2 ng·h/mL, the Cmax ([1]; female, beagle, in vivo, 0.5 mg/kg/day, Cmax) was 125 ± 35 ng/mL and the Cmax ([1]; female, beagle, in vivo, 1.5 mg/kg/day) was 345 ± 87 ng/mL. For the same molecule, the Cmax ([1]; female, beagle, in vivo, 1.5 mg/kg/day, Cmax) was 645 ± 121 ng/mL, the AUC0-24 [1, 2] was 991 ± 161 ng·h/mL and the Cmax [1, 2] was 1360 ± 220 ng/mL. The AUC(0-t) ([1]; female, beagle, in vivo, 4 mg/kg/day, AUC0-24) was 1550 ± 450 ng·h/mL, the Cmax ([1]; female, beagle, in vivo, 4 mg/kg/day, Cmax) was 1930 ± 350 ng/mL and the AUC0-24 [1, 3] was 42.2 ± 13.3 ng·h/mL. For the same molecule, the Cmax [1, 3] was 82.4 ± 22.4 ng/mL, the AUC(0-t) ([1]; male, beagle, in vivo, 0.5 mg/kg/day, AUC0-24) was 83 ± 9.8 ng·h/mL and the Cmax ([1]; male, beagle, in vivo, 0.5 mg/kg/day, Cmax) was 149 ± 16 ng/mL. The Cmax ([1]; male, beagle, in vivo, 1.5 mg/kg/day) was 274 ± 110 ng/mL, the AUC(0-t) ([1]; male, beagle, in vivo, 1.5 mg/kg/day, AUC0-24) was 157 ± 60 ng·h/mL and the Cmax ([1]; male, beagle, in vivo, 1.5 mg/kg/day, Cmax) was 470 ± 218 ng/mL. It also gave an AUC0-24 [1, 4] of 569 ± 99 ng·h/mL, a Cmax [1, 4] of 816 ± 188 ng/mL and an AUC(0-t) ([1]; male, beagle, in vivo, 4 mg/kg/day, AUC0-24) of 1050 ± 150 ng·h/mL. The Cmax ([1]; male, beagle, in vivo, 4 mg/kg/day, Cmax) was 1490 ± 440 ng/mL and the AUC(0-t) ([1]; male, beagle, plasma, 1.5 mg/kg/day, male dogs, 1.5 mg/kg/day 1-h iv infusion, day 28, plasma, LC-MS, mean ± SD, n=5, read-out: AUC0-24) was 416 ± 209 ng·h/mL.
